Experimental findings from PMC3885546, “Structural Determinants of the 5′-Methylthioinosine Specificity of Plasmodium Purine Nucleoside Phosphorylase” (PLoS ONE, 2014) are described below.

Holding throughout (test): Substrate kinetics, coupled assay
Common to all, as to type: biochemical

One test has as its target T1, PfPNP Arg45Ala (Plasmodium falciparum, UniProt Q8I3X4, R45A).
T1 construct: made in house; host or cells: Escherichia coli Top 10
T1 sequence (Q8I3X4 1-245 R45A): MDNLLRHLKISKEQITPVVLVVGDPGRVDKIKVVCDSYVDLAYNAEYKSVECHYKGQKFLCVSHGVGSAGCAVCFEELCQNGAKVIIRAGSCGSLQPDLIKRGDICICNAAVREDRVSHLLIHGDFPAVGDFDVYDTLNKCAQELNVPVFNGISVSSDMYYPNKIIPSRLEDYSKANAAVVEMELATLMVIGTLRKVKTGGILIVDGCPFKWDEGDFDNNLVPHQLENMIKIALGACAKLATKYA
The arrangement: key: (-): Activity not detected under the experimental conditions. Conditions: substrate = label. The protocol:
(§1) Kinetic assays were completed in 50 mM KH2PO4 at pH 7.4 measuring phosphorylysis of inosine or MTI by PNP in a coupled reaction with 60 milliunits/ml xanthine oxidase to convert hypoxanthine to uric acid. Formation of uric acid was measured at 293 nm wavelength (E293 = 12.9 mM^−1 cm^−1), [20]. In cases where activity for MTI was low, increased protein concentration (10 µg/ml) was used to check enzyme function. Assays were performed with excess substrate in the presence of inhibitors. Inhibition studies measured both initial (Ki) and slow onset inhibition (Ki*) for inhibitors. The initial onset inhibition was analyzed by using the following equation: ν ο = (k cat×S)/(K m(1+I/Ki)+S), ν ο is the steady state rate, k cat catalytic rate, S is substrate concentration, Km is Michealis constant for inosine, I is inhibitor concentration, and Ki is the equilibrium dissociation constant.

The next test deals with T2, PfPNP Met183Ala (Plasmodium falciparum, UniProt Q8I3X4, M183A).
T2 construct: made in house; host or cells: Escherichia coli Top 10
T2 sequence (Q8I3X4 1-245 M183A): T1 sequence (Q8I3X4 1-245 R45A) with A45R, M183A
Also on record: key: (-): Activity not detected under the experimental conditions. Conditions: substrate = label. How it is done:
as §1

The target of a further test is T3, PfPNP Val73Phe (Plasmodium falciparum, UniProt Q8I3X4, V73F).
T3 construct: made in house; host or cells: Escherichia coli Top 10
T3 sequence (Q8I3X4 1-245 V73F): T1 sequence (Q8I3X4 1-245 R45A) with A45R, V73F
Also on record: key: (-): Activity not detected under the experimental conditions. The settings on record: substrate = label. The protocol:
as §1

In a further test the target is T4, PfPNP Asp206Ala (Plasmodium falciparum, UniProt Q8I3X4, D206A).
T4 construct: made in house; host or cells: Escherichia coli Top 10
T4 sequence (Q8I3X4 1-245 D206A): T1 sequence (Q8I3X4 1-245 R45A) with A45R, D206A
The arrangement: key: (-): Activity not detected under the experimental conditions. Conditions: substrate = label. How it is done: as §1

The next test has as its target T5, PfPNP Val66Phe (Plasmodium falciparum, UniProt Q8I3X4, V66F).
T5 construct: made in house; host or cells: Escherichia coli Top 10
T5 sequence (Q8I3X4 1-245 V66F): T1 sequence (Q8I3X4 1-245 R45A) with A45R, V66F
The arrangement: key to Km / kcat / kcat/Km: (-): Activity not detected under the experimental conditions. The settings on record: for Km / kcat / kcat/Km: substrate = label. How it is done: as §1

The target in the next test is T6, PfPNP Tyr160Phe (Plasmodium falciparum, UniProt Q8I3X4, Y160F).
T6 construct: made in house; host or cells: Escherichia coli Top 10
T6 sequence (Q8I3X4 1-245 Y160F): T1 sequence (Q8I3X4 1-245 R45A) with A45R, Y160F
Conditions: for Km / kcat: substrate = label. How it is done:
as §1

The target of a further test is T7, PfPNP Val66Ile/Tyr160Phe (Plasmodium falciparum, UniProt Q8I3X4, V66I/Y160F).
T7 construct: made in house; host or cells: Escherichia coli Top 10
T7 sequence (Q8I3X4 1-245 V66I/Y160F): T1 sequence (Q8I3X4 1-245 R45A) with A45R, V66I, Y160F
Conditions: for Km / kcat: substrate = label. How it is done:
as §1

Residue numbers refer to the chain shown, from its start. Like-named read-outs stand apart in the source and are kept apart here.

As a reminder, the Km is the concentration of substrate that gives half-maximal velocity. A word on the kcat: it is the maximal rate divided by the concentration of active sites. On to 5′-methylthioinosine, for which the Km entry at PfPNP Arg45Ala was “(-)”; on PfPNP Met183Ala, “(-)”; at PfPNP Val73Phe it was “(-)”; at PfPNP Asp206Ala, “(-)”; on PfPNP Val66Phe, “(-)”; at PfPNP Tyr160Phe it was 44 ± 5 µM. The Km on PfPNP Val66Ile/Tyr160Phe was 11 ± 2 µM. In addition, the kcat entry on PfPNP Arg45Ala was “(-)”; on PfPNP Met183Ala it was “(-)”; at PfPNP Val73Phe it was “(-)”; on PfPNP Asp206Ala, “(-)”; on PfPNP Val66Phe, “(-)”; at PfPNP Tyr160Phe, 0.30 ± 0.04 s⁻¹. Further, the kcat on PfPNP Val66Ile/Tyr160Phe was 0.05 ± 0.00 s⁻¹. Moreover, the kcat/Km result on PfPNP Arg45Ala was “(-)”; on PfPNP Met183Ala, “(-)”; on PfPNP Met183Ala (listed as MTI), “no detectable activity”; at PfPNP Val73Phe it was “(-)”; on PfPNP Val73Phe (listed as MTI) it was “no activity”; at PfPNP Asp206Ala, “(-)”. Further, the kcat/Km entry at PfPNP Val66Phe is recorded as “(-)”; on PfPNP Val66Phe (listed as MTI), “no detectable activity”.

In the case of `OC[C@H]1O[C@@H](n2cnc3c(O)ncnc32)[C@H](O)[C@@H]1O` [Inosine, inosine], the catalytic constant (kcat) was 0.05 ± 0.03 s⁻¹ on PfPNP Arg45Ala; 0.4 ± 0.3 s⁻¹ at PfPNP Met183Ala; “(-)” at PfPNP Val73Phe; 0.04 ± 0.01 s⁻¹ at PfPNP Asp206Ala; 5.7 ± 3.4 s⁻¹ on PfPNP Val66Phe; 0.21 ± 0.02 s⁻¹ on PfPNP Tyr160Phe. The kcat at PfPNP Val66Ile/Tyr160Phe worked out at 1.2 ± 0.16 s⁻¹. The Km at PfPNP Arg45Ala (read-out: Km) was 470 ± 291 µM; on PfPNP Met183Ala (read-out: Km), 260 ± 64 µM; on PfPNP Val73Phe, “(-)”; on PfPNP Asp206Ala (read-out: Km), 63 ± 6 µM; at PfPNP Val66Phe (read-out: Km) it was 1500 ± 410 µM; on PfPNP Tyr160Phe it was 2.5 ± 1.2 µM. Besides, on PfPNP Val66Ile/Tyr160Phe, the Michaelis-Menten constant (Km) was 6.2 ± 3.5 µM. Further, the kcat/Km result at PfPNP Val73Phe is on record as “(-)”. Moreover, on PfPNP Val66Phe, the “Km greater than for wildtype PfPNP” value is roughly 100 fold. The “Ino/MTI kcat/Km Ratio” value at PfPNP Tyr160Phe turned out to be 12; at PfPNP Val66Ile/Tyr160Phe, 39.
